Laboratory results: patent US20100137449A1, “SUBSTITUTED 1,3-CYCLOPENTADIONE MULTI-TARGET PROTEIN KINASE MODULATORS OF CANCER, ANGIOGENESIS AND THE INFLAMMATORY PATHWAYS ASSOCIATED THEREWITH” (METAPROTEOMICS, LLC, priority 2007, published 2010)

Legend:
Test in all cases: KinaseProfiler Assay
[1] = target: CDK3/cyclinE(h) (Homo sapiens, UniProt Q00526)
[2] = target: T1, Txk(h) (Homo sapiens, UniProt P42681)
T1 sequence (P42681 1-527): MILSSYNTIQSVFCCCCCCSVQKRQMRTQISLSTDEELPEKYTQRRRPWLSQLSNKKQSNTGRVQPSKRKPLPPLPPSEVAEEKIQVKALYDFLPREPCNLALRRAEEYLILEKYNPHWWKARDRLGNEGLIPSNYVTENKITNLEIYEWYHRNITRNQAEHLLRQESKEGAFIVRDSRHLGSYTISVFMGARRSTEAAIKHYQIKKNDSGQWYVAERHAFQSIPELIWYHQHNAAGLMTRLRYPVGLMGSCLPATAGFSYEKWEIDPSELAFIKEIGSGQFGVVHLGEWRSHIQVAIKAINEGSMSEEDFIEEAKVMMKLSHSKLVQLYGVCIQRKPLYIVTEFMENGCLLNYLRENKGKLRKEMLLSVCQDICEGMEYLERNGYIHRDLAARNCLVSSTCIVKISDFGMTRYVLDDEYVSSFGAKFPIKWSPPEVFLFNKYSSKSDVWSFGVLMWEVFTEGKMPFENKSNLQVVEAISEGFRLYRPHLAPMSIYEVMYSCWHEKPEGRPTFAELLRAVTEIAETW

[3] = target: IR(h) (Homo sapiens, UniProt P06213)
[4] = target: PI 3-Kinaseδ(h) (Homo sapiens, UniProt O00329)
[5] = target: Lyn(m) (Mus musculus, UniProt P25911)
Lyn(m), sequence (P25911 whole entry): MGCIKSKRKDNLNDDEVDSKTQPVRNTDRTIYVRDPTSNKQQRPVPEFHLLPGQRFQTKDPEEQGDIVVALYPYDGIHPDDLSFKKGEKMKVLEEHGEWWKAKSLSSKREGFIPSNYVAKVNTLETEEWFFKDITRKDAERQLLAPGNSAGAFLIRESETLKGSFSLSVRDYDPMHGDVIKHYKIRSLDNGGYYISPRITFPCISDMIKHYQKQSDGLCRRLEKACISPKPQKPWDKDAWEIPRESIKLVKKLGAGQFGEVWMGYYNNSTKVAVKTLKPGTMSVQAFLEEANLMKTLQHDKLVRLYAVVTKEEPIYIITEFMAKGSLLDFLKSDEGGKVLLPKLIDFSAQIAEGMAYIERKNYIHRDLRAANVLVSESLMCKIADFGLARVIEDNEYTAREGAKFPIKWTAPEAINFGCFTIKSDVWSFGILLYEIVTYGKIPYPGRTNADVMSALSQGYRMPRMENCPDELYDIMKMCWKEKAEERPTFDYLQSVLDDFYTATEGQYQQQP

[6] = target: T2, NEK3(h) (Homo sapiens, UniProt P51956)
T2 sequence (P51956 1-506): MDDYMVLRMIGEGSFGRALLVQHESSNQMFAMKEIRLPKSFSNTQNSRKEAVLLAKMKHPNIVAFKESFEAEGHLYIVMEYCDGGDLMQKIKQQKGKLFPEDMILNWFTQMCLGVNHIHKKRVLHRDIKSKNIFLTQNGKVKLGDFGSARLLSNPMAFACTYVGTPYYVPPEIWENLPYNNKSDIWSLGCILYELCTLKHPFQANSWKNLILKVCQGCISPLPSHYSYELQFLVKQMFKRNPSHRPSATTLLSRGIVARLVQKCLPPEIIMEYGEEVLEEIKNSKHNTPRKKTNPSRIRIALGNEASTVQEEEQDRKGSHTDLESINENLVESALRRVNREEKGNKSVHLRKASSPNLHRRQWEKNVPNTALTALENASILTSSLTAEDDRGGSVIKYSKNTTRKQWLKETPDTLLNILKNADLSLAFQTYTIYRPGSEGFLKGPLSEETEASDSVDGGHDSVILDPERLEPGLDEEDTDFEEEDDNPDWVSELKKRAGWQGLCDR

[7] = target: Abl(Y253F)(h) (Homo sapiens, UniProt P00519, Y253F)
[8] = target: PI 3-Kinaseδ(h)
[9] = target: PI 3-Kinaseβ(h) (Homo sapiens, UniProt P42338)
PI 3-Kinaseβ(h), sequence (P42338 whole entry): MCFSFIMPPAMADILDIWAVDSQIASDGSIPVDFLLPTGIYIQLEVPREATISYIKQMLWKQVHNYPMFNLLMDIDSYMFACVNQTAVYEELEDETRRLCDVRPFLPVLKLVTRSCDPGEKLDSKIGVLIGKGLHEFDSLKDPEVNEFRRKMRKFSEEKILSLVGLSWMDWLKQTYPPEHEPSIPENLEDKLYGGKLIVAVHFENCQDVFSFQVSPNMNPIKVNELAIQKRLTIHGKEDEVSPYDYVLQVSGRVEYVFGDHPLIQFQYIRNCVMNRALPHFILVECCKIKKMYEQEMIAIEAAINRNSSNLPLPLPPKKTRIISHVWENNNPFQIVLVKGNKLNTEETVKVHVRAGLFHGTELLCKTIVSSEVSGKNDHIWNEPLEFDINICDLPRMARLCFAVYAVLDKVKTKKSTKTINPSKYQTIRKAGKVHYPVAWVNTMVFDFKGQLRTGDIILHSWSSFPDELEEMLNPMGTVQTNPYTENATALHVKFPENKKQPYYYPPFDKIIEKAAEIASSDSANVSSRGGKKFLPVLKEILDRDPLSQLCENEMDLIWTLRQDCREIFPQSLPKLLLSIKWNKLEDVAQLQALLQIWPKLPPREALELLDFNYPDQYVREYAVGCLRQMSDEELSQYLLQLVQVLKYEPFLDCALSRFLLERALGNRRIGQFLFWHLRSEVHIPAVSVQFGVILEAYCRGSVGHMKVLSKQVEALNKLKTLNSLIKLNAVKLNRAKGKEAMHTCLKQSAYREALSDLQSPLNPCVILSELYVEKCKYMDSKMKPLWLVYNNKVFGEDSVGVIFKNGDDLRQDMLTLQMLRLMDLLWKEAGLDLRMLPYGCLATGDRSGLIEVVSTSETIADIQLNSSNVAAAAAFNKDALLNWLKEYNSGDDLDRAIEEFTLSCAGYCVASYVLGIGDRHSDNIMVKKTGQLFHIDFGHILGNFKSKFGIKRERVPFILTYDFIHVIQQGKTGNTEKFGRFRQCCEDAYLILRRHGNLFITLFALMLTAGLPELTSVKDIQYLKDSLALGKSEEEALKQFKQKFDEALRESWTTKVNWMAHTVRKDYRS
PI 3-Kinaseβ(h), sequence (P27986 whole entry partner): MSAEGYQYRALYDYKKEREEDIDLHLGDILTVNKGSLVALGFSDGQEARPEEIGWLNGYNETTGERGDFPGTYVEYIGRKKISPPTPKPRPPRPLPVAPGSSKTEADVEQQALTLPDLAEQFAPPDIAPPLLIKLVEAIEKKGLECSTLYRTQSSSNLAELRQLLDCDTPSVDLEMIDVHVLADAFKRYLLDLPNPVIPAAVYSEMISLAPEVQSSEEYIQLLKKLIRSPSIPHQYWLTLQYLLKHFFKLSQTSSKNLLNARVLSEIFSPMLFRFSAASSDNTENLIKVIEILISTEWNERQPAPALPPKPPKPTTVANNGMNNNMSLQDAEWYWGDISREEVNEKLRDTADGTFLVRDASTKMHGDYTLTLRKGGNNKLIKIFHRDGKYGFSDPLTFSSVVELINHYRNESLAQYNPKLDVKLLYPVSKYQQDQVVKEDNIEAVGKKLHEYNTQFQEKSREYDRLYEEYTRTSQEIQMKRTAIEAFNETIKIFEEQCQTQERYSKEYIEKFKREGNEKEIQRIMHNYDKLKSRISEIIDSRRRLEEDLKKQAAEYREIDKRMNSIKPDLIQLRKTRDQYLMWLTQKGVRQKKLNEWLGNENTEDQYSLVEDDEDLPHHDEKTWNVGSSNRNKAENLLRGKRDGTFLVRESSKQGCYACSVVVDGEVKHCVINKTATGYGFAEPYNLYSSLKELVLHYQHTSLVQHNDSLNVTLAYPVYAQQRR

[10] = target: IRAK1(h) (Homo sapiens, UniProt P51617)
[11] = target: MRCKα(h) (Homo sapiens, UniProt Q5VT25)
MRCKα(h), sequence (Q5VT25 whole entry): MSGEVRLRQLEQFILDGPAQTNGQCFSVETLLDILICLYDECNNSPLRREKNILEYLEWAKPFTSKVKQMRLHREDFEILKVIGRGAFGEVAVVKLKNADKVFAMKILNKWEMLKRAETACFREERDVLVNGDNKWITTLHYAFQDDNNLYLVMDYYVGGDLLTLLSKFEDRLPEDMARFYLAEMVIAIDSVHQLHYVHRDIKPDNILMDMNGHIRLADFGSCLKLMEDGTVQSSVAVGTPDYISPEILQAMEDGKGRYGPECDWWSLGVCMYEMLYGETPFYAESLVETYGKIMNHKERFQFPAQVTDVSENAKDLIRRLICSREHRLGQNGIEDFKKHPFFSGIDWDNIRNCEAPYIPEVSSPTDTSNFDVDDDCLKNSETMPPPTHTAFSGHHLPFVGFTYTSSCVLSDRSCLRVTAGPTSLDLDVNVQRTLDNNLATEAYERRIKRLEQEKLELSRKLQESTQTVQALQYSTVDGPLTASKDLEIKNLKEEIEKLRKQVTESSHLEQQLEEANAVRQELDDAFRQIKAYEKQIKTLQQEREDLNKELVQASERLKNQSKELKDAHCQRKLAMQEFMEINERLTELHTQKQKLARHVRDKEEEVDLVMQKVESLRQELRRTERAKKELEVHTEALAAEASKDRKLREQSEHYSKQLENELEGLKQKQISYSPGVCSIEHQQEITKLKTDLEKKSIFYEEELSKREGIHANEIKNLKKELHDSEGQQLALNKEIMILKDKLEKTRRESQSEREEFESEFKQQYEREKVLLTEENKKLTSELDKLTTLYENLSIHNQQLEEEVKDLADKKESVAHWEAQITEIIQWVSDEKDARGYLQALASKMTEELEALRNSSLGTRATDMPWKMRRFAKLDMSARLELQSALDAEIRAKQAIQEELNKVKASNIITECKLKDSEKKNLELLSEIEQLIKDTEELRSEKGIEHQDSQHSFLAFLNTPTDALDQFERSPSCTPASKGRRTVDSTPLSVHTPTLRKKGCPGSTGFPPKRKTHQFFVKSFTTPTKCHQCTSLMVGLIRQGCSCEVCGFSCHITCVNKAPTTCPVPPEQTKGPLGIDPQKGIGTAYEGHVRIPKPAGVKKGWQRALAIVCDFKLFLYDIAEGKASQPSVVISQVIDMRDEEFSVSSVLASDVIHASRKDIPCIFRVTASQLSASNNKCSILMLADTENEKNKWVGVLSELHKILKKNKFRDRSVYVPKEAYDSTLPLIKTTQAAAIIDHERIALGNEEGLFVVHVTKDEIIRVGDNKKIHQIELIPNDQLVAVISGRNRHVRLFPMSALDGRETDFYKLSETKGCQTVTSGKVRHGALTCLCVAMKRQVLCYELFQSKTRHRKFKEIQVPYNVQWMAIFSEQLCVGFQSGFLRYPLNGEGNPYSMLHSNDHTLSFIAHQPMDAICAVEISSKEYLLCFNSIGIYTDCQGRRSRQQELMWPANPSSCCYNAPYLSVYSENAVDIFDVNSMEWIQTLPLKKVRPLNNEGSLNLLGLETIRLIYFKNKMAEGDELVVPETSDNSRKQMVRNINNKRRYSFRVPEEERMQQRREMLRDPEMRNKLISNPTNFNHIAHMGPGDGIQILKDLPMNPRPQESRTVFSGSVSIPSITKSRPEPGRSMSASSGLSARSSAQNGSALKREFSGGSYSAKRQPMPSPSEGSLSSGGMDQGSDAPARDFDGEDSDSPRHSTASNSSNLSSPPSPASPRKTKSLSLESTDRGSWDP

[12] = target: FGFR4(h) (Homo sapiens, UniProt P22455)
[13] = target: PDGFRα(V561D)(h) (Homo sapiens, UniProt P16234, V561D)
PDGFRα(V561D)(h), sequence (P16234 24-1089 V561D): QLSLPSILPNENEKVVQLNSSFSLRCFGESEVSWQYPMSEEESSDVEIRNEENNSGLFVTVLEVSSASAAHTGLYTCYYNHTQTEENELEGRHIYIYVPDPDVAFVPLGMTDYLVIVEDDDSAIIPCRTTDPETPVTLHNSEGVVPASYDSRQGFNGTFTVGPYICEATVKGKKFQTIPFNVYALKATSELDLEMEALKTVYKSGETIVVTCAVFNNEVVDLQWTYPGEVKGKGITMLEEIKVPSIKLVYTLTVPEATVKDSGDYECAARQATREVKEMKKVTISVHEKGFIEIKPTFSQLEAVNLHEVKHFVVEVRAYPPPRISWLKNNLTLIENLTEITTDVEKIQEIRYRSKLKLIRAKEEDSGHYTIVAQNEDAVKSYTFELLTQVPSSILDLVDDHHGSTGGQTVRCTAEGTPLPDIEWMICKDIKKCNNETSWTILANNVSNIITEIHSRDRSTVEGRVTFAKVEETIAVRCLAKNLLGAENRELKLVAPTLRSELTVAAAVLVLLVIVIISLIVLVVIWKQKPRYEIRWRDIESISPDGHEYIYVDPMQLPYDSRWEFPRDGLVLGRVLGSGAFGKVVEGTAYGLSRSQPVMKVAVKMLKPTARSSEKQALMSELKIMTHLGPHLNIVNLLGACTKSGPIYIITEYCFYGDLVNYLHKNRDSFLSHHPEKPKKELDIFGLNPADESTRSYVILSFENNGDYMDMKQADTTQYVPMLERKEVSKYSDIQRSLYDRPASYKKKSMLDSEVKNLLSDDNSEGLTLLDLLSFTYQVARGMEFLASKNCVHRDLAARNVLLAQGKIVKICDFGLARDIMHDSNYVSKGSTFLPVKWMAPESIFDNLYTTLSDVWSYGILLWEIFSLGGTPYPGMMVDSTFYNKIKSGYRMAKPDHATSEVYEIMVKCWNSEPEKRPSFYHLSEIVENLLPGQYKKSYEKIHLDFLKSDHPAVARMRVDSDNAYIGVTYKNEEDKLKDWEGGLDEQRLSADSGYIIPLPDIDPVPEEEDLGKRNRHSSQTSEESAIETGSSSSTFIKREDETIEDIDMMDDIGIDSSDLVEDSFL

`CC(C)CCC(=O)[C@]1(O)C(O)=C(C(=O)C(C)C)C(=O)[C@H]1CCC(C)C` [TH2, tetrahydroiso-cohumulone] was tested, and the kinase inhibition ([1]; 1 μg/ml) was 102% of control, the kinase inhibition ([1]; 5 μg/ml) was 104% of control and the kinase inhibition ([1]; 25 μg/ml) was 120% of control. The kinase inhibition ([1]; 50 μg/ml) was 103% of control, the kinase inhibition ([1]; 100 μg/ml) was 84% of control and the kinase inhibition ([2]; 1 μg/ml) was 114% of control. The kinase inhibition ([2]; 5 μg/ml) was 121% of control, the kinase inhibition ([2]; 25 μg/ml) was 121% of control and the kinase inhibition ([2]; 50 μg/ml) was 110% of control. For the same compound, the kinase inhibition ([2]; 100 μg/ml) was 107% of control, the kinase inhibition ([3]; 1 μg/ml) was 96% of control and the kinase inhibition ([3]; 5 μg/ml) was 100% of control. For the same compound, the kinase inhibition ([3]; 25 μg/ml) was 80% of control, the kinase inhibition ([3]; 50 μg/ml) was 75% of control and the kinase inhibition ([3]; 100 μg/ml) was 79% of control. For the same compound, the kinase inhibition ([4]; 1 μg/ml) was 97% of control, the kinase inhibition ([4]; 5 μg/ml) was 89% of control and the kinase inhibition ([4]; 25 μg/ml) was 62% of control. For the same compound, the kinase inhibition ([4]; 50 μg/ml) was 18% of control, the kinase inhibition ([4]; 100 μg/ml) was 52% of control and the kinase inhibition ([5]; 1 μg/ml) was 116% of control. For the same compound, the kinase inhibition ([5]; 5 μg/ml) was 110% of control, the kinase inhibition ([5]; 25 μg/ml) was 76% of control and the kinase inhibition ([5]; 50 μg/ml) was 58% of control. The kinase inhibition ([5]; 100 μg/ml) was 68% of control, the kinase inhibition ([6]; 1 μg/ml) was 99% of control and the kinase inhibition ([6]; 5 μg/ml) was 102% of control. For the same compound, the kinase inhibition ([6]; 25 μg/ml) was 97% of control, the kinase inhibition ([6]; 50 μg/ml) was 94% of control and the kinase inhibition ([6]; 100 μg/ml) was 92% of control. For the same compound, the kinase inhibition ([7]; 1 μg/ml) was 117% of control, the kinase inhibition ([7]; 5 μg/ml) was 100% of control and the kinase inhibition ([7]; 25 μg/ml) was 83% of control. The kinase inhibition ([7]; 50 μg/ml) was 65% of control, the kinase inhibition ([7]; 100 μg/ml) was 58% of control and the kinase inhibition ([8]; 1 μg/ml) was 95% of control. The kinase inhibition ([8]; 5 μg/ml) was 100% of control, the kinase inhibition ([8]; 25 μg/ml) was 72% of control and the kinase inhibition ([8]; 50 μg/ml) was 42% of control. For the same compound, the kinase inhibition ([8]; 100 μg/ml) was 19% of control, the kinase inhibition ([9]; 1 μg/ml) was 99% of control and the kinase inhibition ([9]; 5 μg/ml) was 95% of control. For the same compound, the kinase inhibition ([9]; 25 μg/ml) was 75% of control, the kinase inhibition ([9]; 50 μg/ml) was 47% of control and the kinase inhibition ([9]; 100 μg/ml) was 28% of control. The kinase inhibition ([10]; 1 μg/ml) was 99% of control, the kinase inhibition ([10]; 5 μg/ml) was 112% of control and the kinase inhibition ([10]; 25 μg/ml) was 37% of control. For the same compound, the kinase inhibition ([10]; 50 μg/ml) was 39% of control, the kinase inhibition ([10]; 100 μg/ml) was 39% of control and the kinase inhibition ([11]; 1 μg/ml) was 100% of control. For the same compound, the kinase inhibition ([11]; 5 μg/ml) was 94% of control, the kinase inhibition ([11]; 25 μg/ml) was 112% of control and the kinase inhibition ([11]; 50 μg/ml) was 102% of control. For the same compound, the kinase inhibition ([11]; 100 μg/ml) was 97% of control, the kinase inhibition ([12]; 1 μg/ml) was 89% of control and the kinase inhibition ([12]; 5 μg/ml) was 81% of control. For the same compound, the kinase inhibition ([12]; 25 μg/ml) was 55% of control, the kinase inhibition ([12]; 50 μg/ml) was 64% of control and the kinase inhibition ([12]; 100 μg/ml) was 55% of control. For the same compound, the kinase inhibition ([13]; 1 μg/ml) was 115% of control, the kinase inhibition ([13]; 5 μg/ml) was 126% of control and the kinase inhibition ([13]; 25 μg/ml) was 116% of control. For the same compound, the kinase inhibition ([13]; 50 μg/ml) was 111% of control and the kinase inhibition ([13]; 100 μg/ml) was 103% of control.
